Laboratory results reported in the kinase profiling compilation of Christmann-Franck et al. (2016).

What was measured:
Assay in all cases: radiometric filter-binding kinase assay
[1] = system: AKT1 (human), P31749 [S473D]
AURKA (human) = AURKA (human) (UniProt O14965)
BRSK1 (human) = BRSK1 (human) (UniProt Q8TDC3)
DYRK2 (human) = DYRK2 (human) (UniProt Q92630)
EEF2K (human) = EEF2K (human) (UniProt O00418)
EPHA2 (human) = EPHA2 (human) (UniProt P29317)
EPHB3 (human) = EPHB3 (human) (UniProt P54753)
ERBB4 (human) = ERBB4 (human) (UniProt Q15303)
GSK3B (human) = GSK3B (human) (UniProt P49841)
Chain of GSK3B (human) (P49841 whole entry, looked up): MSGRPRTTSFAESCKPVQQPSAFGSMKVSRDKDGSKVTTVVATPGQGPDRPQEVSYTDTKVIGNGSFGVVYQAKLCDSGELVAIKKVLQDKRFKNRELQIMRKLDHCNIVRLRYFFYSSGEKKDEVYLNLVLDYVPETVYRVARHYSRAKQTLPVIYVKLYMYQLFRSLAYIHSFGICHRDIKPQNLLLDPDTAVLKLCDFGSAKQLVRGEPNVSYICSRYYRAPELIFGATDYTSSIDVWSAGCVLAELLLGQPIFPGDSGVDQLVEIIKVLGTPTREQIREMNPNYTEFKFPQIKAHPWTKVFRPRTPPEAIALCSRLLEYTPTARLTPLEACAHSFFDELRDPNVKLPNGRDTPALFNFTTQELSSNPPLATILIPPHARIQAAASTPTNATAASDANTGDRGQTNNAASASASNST

HIPK3 (human) = HIPK3 (human) (UniProt Q9H422)
INSR (human) = INSR (human) (UniProt P06213)
IRAK4 (human) = IRAK4 (human) (UniProt Q9NWZ3)
MAP3K1 (human) = MAP3K1 (human) (UniProt Q13233)
Chain of MAP3K1 (human) (Q13233 whole entry, looked up): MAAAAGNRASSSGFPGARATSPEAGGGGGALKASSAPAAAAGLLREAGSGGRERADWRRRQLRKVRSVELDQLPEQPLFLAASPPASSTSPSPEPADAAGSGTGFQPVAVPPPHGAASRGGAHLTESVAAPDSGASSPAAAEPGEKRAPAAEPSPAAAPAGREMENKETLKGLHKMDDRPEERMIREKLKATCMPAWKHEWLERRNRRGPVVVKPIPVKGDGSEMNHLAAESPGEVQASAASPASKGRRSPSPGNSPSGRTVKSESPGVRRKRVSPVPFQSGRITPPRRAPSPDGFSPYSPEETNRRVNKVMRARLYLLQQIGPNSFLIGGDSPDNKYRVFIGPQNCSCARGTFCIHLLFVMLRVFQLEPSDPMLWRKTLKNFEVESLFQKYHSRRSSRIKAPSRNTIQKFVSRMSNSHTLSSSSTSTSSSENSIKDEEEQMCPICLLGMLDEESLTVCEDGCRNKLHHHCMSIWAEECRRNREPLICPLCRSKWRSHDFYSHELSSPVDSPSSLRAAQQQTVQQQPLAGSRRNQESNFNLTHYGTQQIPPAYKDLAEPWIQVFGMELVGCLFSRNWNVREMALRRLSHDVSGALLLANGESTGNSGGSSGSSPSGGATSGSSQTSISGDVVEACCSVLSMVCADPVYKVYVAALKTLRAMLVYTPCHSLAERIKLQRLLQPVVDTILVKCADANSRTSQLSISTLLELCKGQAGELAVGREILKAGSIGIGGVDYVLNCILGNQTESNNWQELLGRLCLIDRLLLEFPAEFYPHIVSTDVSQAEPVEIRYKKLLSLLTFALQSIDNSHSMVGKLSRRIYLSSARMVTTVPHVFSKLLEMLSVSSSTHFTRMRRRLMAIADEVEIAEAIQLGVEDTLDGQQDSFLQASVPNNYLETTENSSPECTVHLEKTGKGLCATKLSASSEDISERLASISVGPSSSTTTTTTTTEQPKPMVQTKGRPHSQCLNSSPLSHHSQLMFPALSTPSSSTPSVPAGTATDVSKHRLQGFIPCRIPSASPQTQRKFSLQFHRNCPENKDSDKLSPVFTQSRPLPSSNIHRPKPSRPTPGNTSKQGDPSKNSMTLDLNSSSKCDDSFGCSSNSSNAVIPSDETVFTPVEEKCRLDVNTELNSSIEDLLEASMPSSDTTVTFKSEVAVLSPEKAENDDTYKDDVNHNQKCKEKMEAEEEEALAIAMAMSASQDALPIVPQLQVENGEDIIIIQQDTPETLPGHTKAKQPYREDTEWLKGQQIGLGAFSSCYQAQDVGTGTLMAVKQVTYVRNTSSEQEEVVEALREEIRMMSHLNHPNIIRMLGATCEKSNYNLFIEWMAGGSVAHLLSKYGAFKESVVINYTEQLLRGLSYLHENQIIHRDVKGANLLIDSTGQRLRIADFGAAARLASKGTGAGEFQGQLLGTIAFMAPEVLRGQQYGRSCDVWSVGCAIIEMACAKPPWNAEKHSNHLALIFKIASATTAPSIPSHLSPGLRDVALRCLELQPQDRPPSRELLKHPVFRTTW

MAP3K11 (human) = MAP3K11 (human) (UniProt Q16584)
MAP3K7 TAB1 (human) = MAP3K7 TAB1 (human) (UniProt Q15750+O43318)
MAP3K9 (human) = MAP3K9 (human) (UniProt P80192)
MAPK12 (human) = MAPK12 (human) (UniProt P53778)
MAPK9 (human) = MAPK9 (human) (UniProt P45984)
Chain of MAPK9 (human) (P45984 whole entry, looked up): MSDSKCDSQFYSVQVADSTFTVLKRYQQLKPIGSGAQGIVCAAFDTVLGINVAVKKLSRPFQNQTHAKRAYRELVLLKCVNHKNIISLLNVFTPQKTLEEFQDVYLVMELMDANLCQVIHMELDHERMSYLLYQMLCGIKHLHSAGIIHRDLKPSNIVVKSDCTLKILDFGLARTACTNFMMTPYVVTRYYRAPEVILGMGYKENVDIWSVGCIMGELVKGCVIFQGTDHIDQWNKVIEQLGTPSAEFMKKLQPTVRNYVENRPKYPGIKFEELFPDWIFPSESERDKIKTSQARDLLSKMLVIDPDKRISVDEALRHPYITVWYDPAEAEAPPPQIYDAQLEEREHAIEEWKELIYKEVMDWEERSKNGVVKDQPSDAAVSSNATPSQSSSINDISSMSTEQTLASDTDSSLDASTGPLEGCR

MAPKAPK2 (human) = MAPKAPK2 (human) (UniProt P49137)
MARK1 (human) = MARK1 (human) (UniProt Q9P0L2)
Chain of MARK1 (human) (Q9P0L2 whole entry, looked up): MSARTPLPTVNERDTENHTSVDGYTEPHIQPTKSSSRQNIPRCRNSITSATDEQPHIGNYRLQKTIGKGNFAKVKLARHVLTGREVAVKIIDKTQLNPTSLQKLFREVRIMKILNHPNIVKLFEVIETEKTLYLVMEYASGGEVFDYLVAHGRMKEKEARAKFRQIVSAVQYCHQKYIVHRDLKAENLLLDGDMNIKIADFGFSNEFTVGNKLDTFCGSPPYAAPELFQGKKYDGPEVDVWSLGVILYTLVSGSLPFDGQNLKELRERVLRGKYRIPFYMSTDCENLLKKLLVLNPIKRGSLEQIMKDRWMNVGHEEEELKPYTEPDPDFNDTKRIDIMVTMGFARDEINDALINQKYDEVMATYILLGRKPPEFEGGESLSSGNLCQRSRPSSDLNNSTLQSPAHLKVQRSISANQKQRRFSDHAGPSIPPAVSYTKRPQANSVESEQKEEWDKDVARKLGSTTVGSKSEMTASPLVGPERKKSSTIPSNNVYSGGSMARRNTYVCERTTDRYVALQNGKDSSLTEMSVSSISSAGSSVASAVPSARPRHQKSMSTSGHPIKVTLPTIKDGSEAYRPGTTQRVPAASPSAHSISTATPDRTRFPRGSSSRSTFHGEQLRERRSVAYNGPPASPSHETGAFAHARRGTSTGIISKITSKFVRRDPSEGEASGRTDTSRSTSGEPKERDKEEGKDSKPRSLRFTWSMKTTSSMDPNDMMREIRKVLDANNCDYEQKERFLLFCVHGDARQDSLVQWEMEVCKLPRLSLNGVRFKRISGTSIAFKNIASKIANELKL

MARK2 (human) = MARK2 (human) (UniProt Q7KZI7)
MARK4 (human) = MARK4 (human) (UniProt Q96L34)
MELK (human) = MELK (human) (UniProt Q14680)
MST4 (human) = MST4 (human) (UniProt Q9P289)
NTRK1 (human) = NTRK1 (human) (UniProt P04629)
NUAK1 (human) = NUAK1 (human) (UniProt O60285)
PAK4 (human) = PAK4 (human) (UniProt O96013)
PAK6 (human) = PAK6 (human) (UniProt Q9NQU5)
PIM1 (human) = PIM1 (human) (UniProt P11309)
PKN2 (human) = PKN2 (human) (UniProt Q16513)
PRKCA (human) = PRKCA (human) (UniProt P17252)
PRKCZ (human) = PRKCZ (human) (UniProt Q05513)
[2] = molecular target: STK11 CAB39 STRADA (human) (UniProt Q9Y376+Q7RTN6+Q15831)

Chain of EPHA2 (human) (P29317 whole entry, looked up): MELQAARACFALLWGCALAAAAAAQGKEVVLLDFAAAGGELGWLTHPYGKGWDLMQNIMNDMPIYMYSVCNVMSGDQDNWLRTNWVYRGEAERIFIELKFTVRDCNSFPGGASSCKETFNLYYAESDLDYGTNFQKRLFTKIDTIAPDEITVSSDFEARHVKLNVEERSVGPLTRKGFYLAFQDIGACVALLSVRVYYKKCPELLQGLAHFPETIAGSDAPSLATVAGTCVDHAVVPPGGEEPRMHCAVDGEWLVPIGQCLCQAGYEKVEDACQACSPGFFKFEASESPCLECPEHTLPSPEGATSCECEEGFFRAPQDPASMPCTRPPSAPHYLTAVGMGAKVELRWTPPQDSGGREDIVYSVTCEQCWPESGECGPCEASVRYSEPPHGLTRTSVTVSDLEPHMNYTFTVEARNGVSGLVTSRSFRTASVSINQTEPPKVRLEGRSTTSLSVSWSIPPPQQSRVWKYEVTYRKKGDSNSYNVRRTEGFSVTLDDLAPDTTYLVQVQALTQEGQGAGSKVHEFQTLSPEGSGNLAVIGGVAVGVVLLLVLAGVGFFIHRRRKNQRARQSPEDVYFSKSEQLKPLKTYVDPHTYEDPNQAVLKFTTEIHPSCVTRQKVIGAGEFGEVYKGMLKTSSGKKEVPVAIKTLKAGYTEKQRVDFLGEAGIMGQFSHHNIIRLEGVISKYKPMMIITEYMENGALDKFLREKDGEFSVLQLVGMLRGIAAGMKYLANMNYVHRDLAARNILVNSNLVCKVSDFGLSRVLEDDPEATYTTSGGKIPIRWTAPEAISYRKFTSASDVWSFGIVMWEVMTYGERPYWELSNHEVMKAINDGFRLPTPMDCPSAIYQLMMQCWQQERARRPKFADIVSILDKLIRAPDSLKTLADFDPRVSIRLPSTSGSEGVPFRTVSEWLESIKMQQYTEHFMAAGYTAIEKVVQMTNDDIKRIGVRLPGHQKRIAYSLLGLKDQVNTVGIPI

A residual activity ([1]; compound 0.1 µM) of 102%, a residual activity ([1]; compound 1.0 µM) of 106% and a residual activity (AURKA (human); compound 0.1 µM) of 120% were found for Cc1cccc(-c2nn(C(=S)Nc3ccccc3)cc2-c2ccnc3ccccc23)n1 in this work. For the same molecule, the residual activity (AURKA (human); compound 1.0 µM) was 107%, the residual activity (BRSK1 (human); compound 0.1 µM) was 110% and the residual activity (BRSK1 (human); compound 1.0 µM) was 95%. For the same molecule, the residual activity (DYRK2 (human); compound 0.1 µM) was 100%, the residual activity (DYRK2 (human); compound 1.0 µM) was 95% and the residual activity (EEF2K (human); compound 0.1 µM) was 102%. It also gave a residual activity (EEF2K (human); compound 1.0 µM) of 100%, a residual activity (EPHA2 (human); compound 0.1 µM) of 105% and a residual activity (EPHA2 (human); compound 1.0 µM) of 92%. The residual activity (EPHB3 (human); compound 0.1 µM) was 112%, the residual activity (EPHB3 (human); compound 1.0 µM) was 104% and the residual activity (ERBB4 (human); compound 0.1 µM) was 104%. It also gave a residual activity (ERBB4 (human); compound 1.0 µM) of 82%, a residual activity (GSK3B (human); compound 0.1 µM) of 99% and a residual activity (GSK3B (human); compound 1.0 µM) of 79%. The residual activity (HIPK3 (human); compound 0.1 µM) was 105%, the residual activity (HIPK3 (human); compound 1.0 µM) was 99% and the residual activity (INSR (human); compound 0.1 µM) was 108%. It also gave a residual activity (INSR (human); compound 1.0 µM) of 94%, a residual activity (IRAK4 (human); compound 0.1 µM) of 101% and a residual activity (IRAK4 (human); compound 1.0 µM) of 99%. For the same molecule, the residual activity (MAP3K1 (human); compound 0.1 µM) was 130%, the residual activity (MAP3K1 (human); compound 1.0 µM) was 111% and the residual activity (MAP3K11 (human); compound 0.1 µM) was 104%. For the same molecule, the residual activity (MAP3K11 (human); compound 1.0 µM) was 107%, the residual activity (MAP3K7 TAB1 (human); compound 0.1 µM) was 99% and the residual activity (MAP3K7 TAB1 (human); compound 1.0 µM) was 81%. For the same molecule, the residual activity (MAP3K9 (human); compound 0.1 µM) was 96%, the residual activity (MAP3K9 (human); compound 1.0 µM) was 86% and the residual activity (MAPK12 (human); compound 0.1 µM) was 102%. For the same molecule, the residual activity (MAPK12 (human); compound 1.0 µM) was 88%, the residual activity (MAPK9 (human); compound 0.1 µM) was 105% and the residual activity (MAPK9 (human); compound 1.0 µM) was 90%. The residual activity (MAPKAPK2 (human); compound 0.1 µM) was 117%, the residual activity (MAPKAPK2 (human); compound 1.0 µM) was 108% and the residual activity (MARK1 (human); compound 0.1 µM) was 107%. For the same molecule, the residual activity (MARK1 (human); compound 1.0 µM) was 113%, the residual activity (MARK2 (human); compound 0.1 µM) was 121% and the residual activity (MARK2 (human); compound 1.0 µM) was 110%. For the same molecule, the residual activity (MARK4 (human); compound 0.1 µM) was 98%, the residual activity (MARK4 (human); compound 1.0 µM) was 87% and the residual activity (MELK (human); compound 0.1 µM) was 111%. It also gave a residual activity (MELK (human); compound 1.0 µM) of 105%, a residual activity (MST4 (human); compound 0.1 µM) of 95% and a residual activity (MST4 (human); compound 1.0 µM) of 99%. For the same molecule, the residual activity (NTRK1 (human); compound 0.1 µM) was 118%, the residual activity (NTRK1 (human); compound 1.0 µM) was 99% and the residual activity (NUAK1 (human); compound 0.1 µM) was 96%. For the same molecule, the residual activity (NUAK1 (human); compound 1.0 µM) was 84%, the residual activity (PAK4 (human); compound 0.1 µM) was 89% and the residual activity (PAK4 (human); compound 1.0 µM) was 93%. The residual activity (PAK6 (human); compound 0.1 µM) was 111%, the residual activity (PAK6 (human); compound 1.0 µM) was 113% and the residual activity (PIM1 (human); compound 0.1 µM) was 105%. For the same molecule, the residual activity (PIM1 (human); compound 1.0 µM) was 97%, the residual activity (PKN2 (human); compound 0.1 µM) was 105% and the residual activity (PKN2 (human); compound 1.0 µM) was 91%. For the same molecule, the residual activity (PRKCA (human); compound 0.1 µM) was 97%, the residual activity (PRKCA (human); compound 1.0 µM) was 102% and the residual activity (PRKCZ (human); compound 0.1 µM) was 98%. For the same molecule, the residual activity (PRKCZ (human); compound 1.0 µM) was 100%, the residual activity ([2]; compound 0.1 µM) was 101% and the residual activity ([2]; compound 1.0 µM) was 99%.
